Results: patent US5362364A, “Process for producing alkaline paper” (Mitsubishi Paper Mills Limited, priority 1990, dated 1994)

Experiments:
[1] = test system: Salmonella typyhimurium TA 100; assay: mutagenicity test (reverse mutation test) on hand sheet extract, Ministry of Labor Order No. 261; assay type: cell-based; conditions: compared with Sample 3-1 and 4-1 (DMTT) or Sample 7-1 and 8-1 (bromonitroalcohol)
Method: That is, each hand sheet was subjected to extraction using a mixture of benzene/ethanol (9/1, by volume) at 80° C. for three hours, and the resulting extractant was subjected to a reverse mutation test using Salmonella typyhimurium TA 100 without following a metabolism activating method.
When the number of reverse mutation colony increased to twice or more that in the case of dimethyl sulfoxide used as a control solvent, it was determined "positive".

[2] = Stockigt sizing degree of paper according to JIS P 8122; assay type: physicochemical; conditions: compared with Sample 3-1 and 4-1 (DMTT) or Sample 7-1 and 8-1 (bromonitroalcohol)
Method: The paper stock immediately after prepared was used to prepare a hand sheet having a basis weight of 60 g/m^2. The resulting sheet was dried at 80° C. for 5 min. in a hot air drier. The sheet thus prepared was called "Sample 1-1".
In the above, the sizing degree was measured by Testing method for Stockigt sizing degree of paper according to JIS P 8122.
The 0.1% addition of the alkylketene dimer should develop the sizing degree of 20-25 sec. unless other chemicals used together interfere with it.
The paper stock immediately after prepared was used to prepare a handmade sheet having a basis weight of 60 g/m^2. The resulting sheet was dried at 80° C. for 5 min. in a hot air drier. The sheet thus prepared was called "Sample 5-1".
(§1) Measurement of the sizing degree, evaluation of the mutagenicity, and ninhydrin reaction in Table 3 and Table 4 were conducted in the same manner as in Table 1 and Table 2.

[3] = test system: slime; assay: ninhydrin reaction of the paper stock filtrate (slime formation); conditions: for slime inhibiting effect: slimecide added in advance to cationic starch, compared with conventional direct addition
Method: (§2) A part of the paper stock as obtained above was stored at 32° C. for 7 days and then, filtered by means of a wire screen. The filtrate was subjected to ninhydrin reaction and the effectiveness of the slimecide controlling agent was evaluated based on the result of the ninhydrin reaction. The filtrate was called "Sample 1-2".
Ninhydrin reaction was effected by adding 0.5 ml of a 1% aqueous solution of nonhydrin to 10 ml of the filtrate, and the result was evaluated depending on the degree of color change of the resulting solution to reddish purple.
as §2, with “net.” for “screen.”, “slime” for “slimecide”, “5-2".” for “1-2".”
as §1

SMILES | safety for man [1] | effect on sizing [2] | amount of slimecide relative to amount added in conventional manner ([3]; slime inhibition with slimecide added in advance to cationic starch, based on paper stock solid matter) | slime inhibiting effect [3]
O=[N+]([O-])C(Br)(CO)CO [2-bromo-2-nitropropane-1,3-diol] | neither harmful to man | nor adversely affects the sizing property | about 1/10 | slime formation can be effectively inhibited
CN1CSC(=S)N(C)C1 [DMTT, 3,5-dimethyltetrahydro-1,3,5-2H-thiadiazine-2-thione] | – | minimal adverse effect on sizing | – | excellent slime inhibiting effect
